Experimental data as given in patent US20090220621A1, “Pharmaceutical compositions of a non-enteric coated proton pump inhibitor with a carbonate salt and bicarbonate salt combination” (priority 2000, published 2009).
“And” between values parts separate entries of the source, which are not always exact repeats. Identical values can stand only once.

Tests used:
Format in all cases: physicochemical
[1] = Gas and CO2 generated by neutralization of simulated gastric fluid (Orsat apparatus, standard CO2 assay)
Source text: To quantify the gas produced by the neutralization of simulated gastric fluid ([…]) by carbicarb and by sodium bicarbonate in vitro, a standard CO2 assay technique was utilized (see USP 24-NF 19 Beta, The United States Pharmacopeia 2000, p. 306)
(§1) Aqueous solutions to be tested were made up from starting materials sodium carbonate, (anhydrous, available from Mallinckrodt) and sodium bicarbonate (available from Mallinckrodt). An 8.4% sodium bicarbonate solution and an 8.4% carbicarb solution (containing equimolar amounts of sodium bicarbonate and sodium carbonate) were tested as follows.
The specimen gas was generated by reacting either 450 mL simulated gastric fluid (SGF) with 50 mL of the carbicarb solution; or by reacting 45 ml of simulated gastric fluid with 5 ml of sodium bicarbonate solution in a 500 mL Erlenmeyer flask.
To make Simulated Gastric Fluid (SGF) 1 g sodium chloride was transferred to a 500-mL volumetric flask. After adding 1.6 g pepsin, 25 mL 2 N hydrochloric acid was added and swirled to mix. The resultant solution could then be diluted to the appropriate volume with water.
The amount of gas generated in a twenty-minute time period was measured in an Orsat Glass Vapor Absorption Apparatus, by the standard assay technique. Two tests were run for each solution. The volume of CO2 generated was calculated from the difference in the initial volume of gas produced (ml) and the final volume of gas remaining (ml).

[2] = Titration of simulated gastric fluid with acid neutralizer solution (gastric acid neutralizing capacity); conditions: 50 mL SGF
Description: To determine and compare the gastric acid neutralizing capacity of sodium bicarbonate solution to carbicarb solution, the following experiment was performed.
as §1
50 mL simulated gastric fluid (SGF, prepared according to the procedure described in Example 1) was pipetted into an Erlenmeyer flask. Four drops of methyl red, then four drops of phenolphthalein were then added to the flask. The pH of solution was monitored with a pH electrode. The solution to be tested was added to a 5-mL buret. The gastric media in the flask was then titrated with the test solution to an endpoint within 0.2 pH units of pH 6.5 (as indicated by the color change and pH reading). Then, titration was resumed, to an endpoint within 0.2 pH units of pH 8.0 (as indicated by the color change and pH reading).

[3] = Stability of lansoprazole in simulated gastric fluid with and without carbicarb (chromatographic assay); conditions: for % labeled amount of lansoprazole remaining: Sample in water; for % of the drug degraded: at 60 minutes in SGF
Description: Lansoprazole degrades in acid and is stable in base. This study was performed to determine 1) how quickly lansoprazole degrades in simulated gastric fluid (SGF); and 2) whether a high pH-buffering agent (carbicarb which is an equimolar mixture of sodium carbonate and sodium bicarbonate) could be used to retard the degradation of lansoprazole in SGF. All the experiments were conducted at room temperature (22° C.±2° C.).
The PPI test sample included lansoprazole (30 mg); mannitol (60 mg), meglumine (30 mg) and sodium hydroxide (3 mg).
Then 5.0 mL 2 N sodium hydroxide solution was added to the 0-minutes beaker with mixing. To each of the 5 remaining beakers, 10.0 mL of 8.4% carbicarb solution was added and stirred to mix. At the appropriate time interval (corresponding to the individual beaker numbers), 5.0 mL 2 N sodium hydroxide solution was added to stop the reaction. A portion of the resulting solution was diluted with pH 10 diluent. 10 μL of the resulting solution was then injected into the chromatographic system for assay.
Granular formulations of lansoprazole, including carbicarb were also made and tested. The stability of the granular formulations was tested according to the procedure of Example 3. The granular formulations of lansoprazole for this example were prepared as follows.
The coherent mass containing lansoprazole, carbicarb, lactose and sucrose solution was prepared as described above, in Example 3. This coherent mass was passed through a 20-mesh screen and the resulting granules were dried at 50° C. for 12 hours. Granules containing 30-mg lansoprazole were transferred to an amber color container along with and an equal weight of flavor granules. 10 ml of water ((HPLC grade, Fisher Scientific, Pittsburgh, Pa.) was added to the container with gentle shaking to reconstitute the suspension. The resulting suspension of lansoprazole was tested for stability in simulated gastric fluid as described earlier in Experiment 3.

[4] = 450 mL SGF and 50 mL test solution, ten times the 45 mL/5 mL values

SMILES	Volume of CO2 ([1]; 45 mL SGF and 5 mL test solution, initial minus residual gas volume)	Initial Gas Volume [1, 4]	Volume of CO2 [1, 4]	Volume of Acid Neutralizer Solution Required ([2]; pH after adding neutralizer 7.0) [mL]	Volume of Acid Neutralizer Solution Required ([2]; pH after adding neutralizer 8.0) [mL]	Volume of Acid Neutralizer Solution Required ([2]; pH of simulated gastric fluid after adding neutralizer 1.2) [mL]	% labeled amount of lansoprazole remaining ([3]; time in SGF 30 minutes) [%]	% labeled amount of lansoprazole remaining ([3]; time in SGF 45 minutes) [%]	% labeled amount of lansoprazole remaining ([3]; time in SGF 60 minutes) [%]	% of the drug degraded ([3]; constituted with carbicarb solution) [%]	% of the drug degraded ([3]; reconstituted with water) [%]
O=C([O-])O.[Na+] [8.4% sodium bicarbonate solution, sodium bicarbonate]	2.9 mL and 5.3 mL	930.0 mL and 820.0 mL	29.0 mL and 53.0 mL	5.00	6.20	0					
Cc1c(OCC(F)(F)F)ccnc1C[S+]([O-])c1nc2ccccc2[nH]1 (centres unmarked) [lansoprazole]							4.1	2.7	2.0	3.5	98
